According to US20200077655A1, “Use of an Acyclic Picolinamide Compound as a Fungicide for Control of Phytopathogenic Fungi in Orchard, Vineyard and Plantation Crops” (Dow AgroSciences LLC, priority 2017, published 2020):

Key:
Format in all cases: in vivo
[1] = system: Monilinia fructicola (MONIFC); experiment: Field microplot assessment on brown rot on apricots; details: field grown apricots
Description: A field trial assessing the utility of Compound I on rot diseases of stone fruits was done using apricots in a microplot method, part of an experimental trial designed as a randomized complete block with four replications. In a microplot method, two mature fruits on a single branch or cluster of fruits were selected for each replication (for a total of 10 replications) instead of using an entire replication. Colored flagging identified treatments. Fungicidal treatments containing Compound I, applied in a 5% EC formulation and tank mixed with an adjuvant (Trycol, 50% w/w at 0.2% v/v), were sprayed on apricots (PRNAR) at rates of 50, 100, and 150 grams of active ingredient per hectare (g ai/ha). The applications to the selected mature apricots were done at 7 days before harvest using a hand held manual spray bottle at a water volume of 500 L/ha. One day after application, a ZipLoc plastic bag was placed over the fruit or fruit cluster and an inoculation mix of MONIFC (Rhizopus was from natural population present in the orchard) was sprayed inside covering the fruits. The plastic bags were removed after 24 hours. At harvest, the fruits were collected in the field and placed in plastic Tupperware containers. 150 mL of de-ionized water was poured in the bottom of the Tupperware containers and the fruits were sprayed with a light mist of water. The containers were brought to the lab, enclosed in a large trash bag to keep the humidity high, and incubated on a lab bench at approximately 23° C. Visual disease incidence was assessed during the trial at 9 and 16 days after application. Area under the disease progress curve (AUDPC) was calculated for each plot using the sets of recorded incidence data. Relative AUDPC (% control based on AUDPC) was calculated as percent of the nontreated control.

[2] = system: Monilinia fructicola (MONIFC); experiment: Field microplot assessment on brown rot on peaches; details: field grown peaches, 17 days after first application
Description: A field trial assessing the utility of Compound I on rot diseases of stone fruits was also done on peaches using a microplot method, part of an experimental trial designed as a randomized complete block with four replications. In a microplot method, two mature fruits on a single branch or cluster of fruits were selected for each replication (for a total of 10 replications) instead of using an entire replication. Colored flagging identified treatments. One day before the first application, a ZipLoc plastic bag was placed over the fruit or fruit cluster and an inoculation mix of MONIFC was sprayed inside covering the fruits. The plastic bags were removed after 24 hours. After 24 hr, fungicidal treatments containing Compound I, applied in a 5% EC formulation and tank mixed with an adjuvant (Trycol, 50% w/w at 0.2% v/v), were then sprayed twice on peaches (PRNPS) at rates of 50, 100, and 150 grams of active ingredient per hectare (g ai/ha). The applications to the selected mature peaches were done at 14 and 7 days before harvest using a CO2 powered inoculation spray gun at a water volume of 500 L/ha. At harvest, the fruits were collected in the field and placed in plastic Tupperware containers. 150 mL of de-ionized water was poured in the bottom of the Tupperware containers and the fruits were sprayed with a light mist of water. The containers were brought to the lab, enclosed in a large trash bag to keep the humidity high, and incubated on a lab bench at approximately 23° C. The percentage of visual disease incidence and severity was assessed during the trial at 17 days after the first application.

Alternaria mali (ALTEMA) = experiment: Field assessment of leaf spot of apple, protectant and curative trials
Protocol: Assessment of compound I on leaf spot of apple (ALTEMA), in both protectant and curative fashion, was performed in two separate field trials. For the protectant trial, a fungicidal treatment containing a 10% SC formulation of Compound I, either alone or with an adjuvant (Agnique BP420, 50% w/w at 0.3% v/v; or ETHOMEEN T18H, 50% w/w at 0.2% v/v), was sprayed on the plant canopy of apple trees (Hongxing variety) six times during the growing season of apples with each application coming at 15 day intervals. Formulations of Compound I, with or without adjuvants, were applied at rates of 100, 125 and 150 grams of active ingredient per hectare (g ai/ha) and were applied at water volume of 4500 L/ha. The experimental plots were inoculated three times with the leaf spot pathogen, the first inoculation performed at 2 days after the first application (Application A, 2DAAA), with the following applications at 2DAAC and 2DAAD. The treatment was part of an experimental trial designed as a randomized complete block with three replications and a plot size of 3 trees.
For the curative trial, a fungicidal treatment containing a 10% SC formulation of Compound I, either alone or with an adjuvant (Agnique BP420, 50% w/w at 0.3% v/v; or ETHOMEEN T18H, 50% w/w at 0.2% v/v), was sprayed on the plant canopy of apple trees (Hongxing variety) six times during the growing season of apples with each application coming at 15 day intervals. Formulations of Compound I, with or without adjuvants, were applied at rates of 100, 125 and 150 grams of active ingredient per hectare (g ai/ha) and were applied at water volume of 4500 L/ha. The experimental plots were inoculated three times with the leaf spot pathogen, the first inoculation performed at 5 days before the first application. The second inoculation was at 5 days before the third application and the third inoculation coming at 5 days before the fourth application. The treatment was part of an experimental trial designed as a randomized complete block with three replications and a plot size of 3 trees.
Disease incidence was assessed as percentage of diseased foliage per plant. Apple leaf spot infection was assessed six times, with the last assessment coming at 90 days after the first application. Area under the disease progress curve (AUDPC) was calculated for each plot using the sets of recorded visual infection data. Relative AUDPC (% control based on AUDPC) was calculated as percent of the nontreated control.

[3] = 100 g ai/ha, adjuvant ETHOMEEN, 10% SC
[4] = 100 g ai/ha, adjuvant None, 10% SC
[5] = 125 g ai/ha, adjuvant Agnique BP420, 10% SC
[6] = 125 g ai/ha, adjuvant ETHOMEEN, 10% SC
[7] = 150 g ai/ha, adjuvant ETHOMEEN, 10% SC

COc1ccnc(C(=O)N[C@@H](C)C(=O)O[C@@H](C)C(c2ccc(F)cc2)c2ccc(F)cc2)c1OC(C)=O [Compound I, (S)-1,1-bis(4-fluorophenyl)propan-2-yl (3-acetoxy-4-methoxypicolinoyl)-L-alaninate]
87.3%: MONIFC, percentage of area affected on peaches (Severity) ([2]; 50 g ai/ha)
69.5%: MONIFC, percentage of area affected on peaches (Severity) ([2]; 150 g ai/ha)
A (76-100): % Control Curative (AUDPC, leaf infection) (Alternaria mali (ALTEMA); [3]) | % Control Protectant (AUDPC, leaf infection) (Alternaria mali (ALTEMA); [3]) | % Control Curative (AUDPC, leaf infection) (Alternaria mali (ALTEMA); [5]) | % Control Protectant (AUDPC, leaf infection) (Alternaria mali (ALTEMA); [5]) | % Control Curative (AUDPC, leaf infection) (Alternaria mali (ALTEMA); [6]) | % Control Protectant (AUDPC, leaf infection) (Alternaria mali (ALTEMA); [6]) | % Control Curative (AUDPC, leaf infection) (Alternaria mali (ALTEMA); [7]) | % Control Protectant (AUDPC, leaf infection) (Alternaria mali (ALTEMA); [7])
57.0%: MONIFC, percentage of area affected on peaches (Severity) ([2]; 100 g ai/ha)
B (51-75): Percent control (AUDPC) from fruit incidence, MONIFC ([1]; 50 g ai/ha) | Percent control (AUDPC) from fruit incidence, MONIFC ([1]; 100 g ai/ha) | Percent control (AUDPC) from fruit incidence, MONIFC ([1]; 150 g ai/ha) | % Control Curative (AUDPC, leaf infection) (Alternaria mali (ALTEMA); [4]) | % Control Protectant (AUDPC, leaf infection) (Alternaria mali (ALTEMA); [4])
